The target in one series is Human Elastase. To be noted: pH 8.0, room temperature, 50 mM Tris, 100 mM NaCl, Brij 35.
For the next series, the target named is Human Thrombin (Homo sapiens, UniProt P00734).
Another series concerns the target Bovine Chymotrypsin (Bos taurus, UniProt P00766).
The nature of the next series: in vitro. To be noted: human, microsomes.

For the molecule `CC(C)(C)[C@H](NC(=O)C(F)(F)F)C(=O)N1C[C@H]2[C@@H]([C@H]1C(=O)N[C@H](C#N)C[C@@H]1CCNC1=O)C2(C)C` [compound 6, (1R,2S,5S)-N-{(1S)-1-Cyano-2-[(3S)-2-oxopyrrolidin-3-yl]ethyl}-6,6-dimethyl-3-[3-methyl-N-(trifluoroacetyl)-L-valyl]-3-azabicyclo[3.1.0]hexane-2-carboxamide], the IC50 against Human Elastase, against Human Thrombin and against Bovine Chymotrypsin was greater than 100 µM each time.
Regarding `COc1cccc2[nH]c(C(=O)N[C@@H](CC(C)C)C(=O)N[C@@H](C[C@@H]3CCNC3=O)C(=O)CO)cc12` [compound 1, PF-00835231], the microsomal CLint – broadly, the rate of metabolic loss divided by the concentration – in the series “in vitro” stood at 7.47 ± 0.88 µL/min/mg.
Regarding `CC(C)[C@H](NS(C)(=O)=O)C(=O)N1C[C@H]2[C@@H]([C@H]1C(=O)N[C@@H](C[C@@H]1CCNC1=O)C(=O)c1nc3ccccc3s1)C2(C)C` [compound 4, (1R,2S,5S)-N-{(2S)-1-(1,3-Benzothiazol-2-yl)-1-oxo-3-[(3S)-2-oxopyrrolidin-3-yl]propan-2-yl}-6,6-dimethyl-3-[N-(methylsulfonyl)-L-valyl]-3-azabicyclo[3.1.0]hexane-2 carboxamide], in the series “in vitro”, the microsomal CLint was found to be 127 ± 3 µL/min/mg.
Same read-out and setting: as for `COc1cccc2[nH]c(C(=O)N[C@@H](CC(C)C)C(=O)N[C@H](C#N)C[C@@H]3CCNC3=O)cc12` [compound 2, N-[(2S)-1-({(1S)-1-Cyano-2-[(3S)-2-oxopyrrolidin-3-yl]ethyl}amino)-4-methyl-1-oxopentan-2-yl]-4-methoxy-1H-indole-2-carboxamide], the figure is 34.4 ± 0.7 µL/min/mg.

The values are drawn from doi:10.1101/2021.07.28.21261232v1 (medrxiv, 2021).
